pIC50: −log10 of the molar value.
Experiments:
Homo sapiens = species on record: Homo sapiens; assay: Binding affinity to […] (unknown origin) assessed as change in melting temperature by thermal stabilization assay
[1] = molecular target: T1, Poly [ADP-ribose] polymerase 1 (Homo sapiens, UniProt P09874)
[2] = tested on: Poly [ADP-ribose] polymerase 14, ARTD8/PARP14 (Homo sapiens)
[3] = molecular target: Poly [ADP-ribose] polymerase 2 (Homo sapiens) (UniProt Q9UGN5)
[4] = molecular target: T1, Poly [ADP-ribose] polymerase 1; remark: listed apart in the source

T1 sequence (P09874 whole entry): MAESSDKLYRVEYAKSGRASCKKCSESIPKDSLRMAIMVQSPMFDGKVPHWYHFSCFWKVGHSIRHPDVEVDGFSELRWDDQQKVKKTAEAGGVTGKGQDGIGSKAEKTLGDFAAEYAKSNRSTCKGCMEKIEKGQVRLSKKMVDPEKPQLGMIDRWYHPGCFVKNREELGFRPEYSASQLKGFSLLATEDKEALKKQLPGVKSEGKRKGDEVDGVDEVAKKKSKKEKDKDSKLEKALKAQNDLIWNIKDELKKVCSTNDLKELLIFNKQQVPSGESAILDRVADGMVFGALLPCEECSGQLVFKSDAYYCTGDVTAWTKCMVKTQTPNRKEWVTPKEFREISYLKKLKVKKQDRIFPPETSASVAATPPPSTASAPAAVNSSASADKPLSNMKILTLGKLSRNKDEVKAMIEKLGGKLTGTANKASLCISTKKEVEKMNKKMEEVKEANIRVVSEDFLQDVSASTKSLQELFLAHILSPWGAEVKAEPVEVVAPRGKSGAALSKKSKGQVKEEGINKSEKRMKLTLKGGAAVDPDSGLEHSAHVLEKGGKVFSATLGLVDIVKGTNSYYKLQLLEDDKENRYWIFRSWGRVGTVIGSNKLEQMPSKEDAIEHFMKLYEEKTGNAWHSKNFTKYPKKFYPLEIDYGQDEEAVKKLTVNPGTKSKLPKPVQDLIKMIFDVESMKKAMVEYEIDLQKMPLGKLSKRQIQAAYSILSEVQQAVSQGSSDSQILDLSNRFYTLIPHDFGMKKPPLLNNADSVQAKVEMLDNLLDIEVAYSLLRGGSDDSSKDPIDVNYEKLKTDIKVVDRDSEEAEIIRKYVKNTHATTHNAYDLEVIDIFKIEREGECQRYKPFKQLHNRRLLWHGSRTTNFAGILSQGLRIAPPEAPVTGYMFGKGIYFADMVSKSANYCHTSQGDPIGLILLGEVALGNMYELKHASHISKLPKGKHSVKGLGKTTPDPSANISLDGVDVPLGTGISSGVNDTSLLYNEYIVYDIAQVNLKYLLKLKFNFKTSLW
Chain of Poly [ADP-ribose] polymerase 2 (Homo sapiens) (Q9UGN5 whole entry): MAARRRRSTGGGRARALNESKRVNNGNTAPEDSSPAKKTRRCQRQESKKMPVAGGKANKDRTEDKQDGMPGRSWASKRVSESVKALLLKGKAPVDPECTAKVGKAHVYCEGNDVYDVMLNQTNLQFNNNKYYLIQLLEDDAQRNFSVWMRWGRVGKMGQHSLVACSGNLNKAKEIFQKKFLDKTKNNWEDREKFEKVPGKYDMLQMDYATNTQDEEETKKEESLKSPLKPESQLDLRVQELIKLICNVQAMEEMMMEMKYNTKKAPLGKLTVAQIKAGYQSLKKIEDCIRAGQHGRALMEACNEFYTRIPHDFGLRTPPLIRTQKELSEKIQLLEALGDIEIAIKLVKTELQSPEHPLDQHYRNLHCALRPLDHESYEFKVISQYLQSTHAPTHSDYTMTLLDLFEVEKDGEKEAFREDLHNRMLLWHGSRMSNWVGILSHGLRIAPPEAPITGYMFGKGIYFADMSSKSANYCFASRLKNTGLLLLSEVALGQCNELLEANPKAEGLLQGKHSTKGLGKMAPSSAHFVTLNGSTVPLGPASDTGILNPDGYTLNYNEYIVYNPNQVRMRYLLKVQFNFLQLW

| SMILES | ΔTm (Homo sapiens) [°C] | pIC50 [1] | ΔTm [2] [°C] | ΔTm [3] [°C] | ΔTm [4] [°C] |
| --- | --- | --- | --- | --- | --- |
| O=C(CCc1nc2ccccc2c(=O)[nH]1)N[C@@H]1CCc2ccccc21 | 0.8 | 6.11 | 0.1 | 1.92 | 2.37 |
| O=C(CCc1nc2ccccc2c(=O)[nH]1)N[C@H]1CCc2ccccc21 | 0.84 | 6.29 | 0.18 | 1.39 | 2.38 |
